Measurements as given in patent US20220048987A1, “METHOD OF TREATMENT TO PREVENT OR REVERSE AGE-ASSOCIATED INFLAMMATION, COGNITIVE DECLINE, AND NEURODEGENERATION” (The Board of Trustees of the Leland Stanford Junior …, priority 2020, published 2022).

Experiment: Measurement of PF04418948 in plasma and brain (LC/MS/MS)
Format: in vivo, mouse
Settings: aged (20-22 mo) mice, 2.5 mg/kg/d, 6 weeks, perfused brain
Procedure: Presence of PF04418948 was measured in aged (20-22 mo) mice treated with PF04418948 2.5 mg/kg/d for 6 weeks in plasma and perfused brain by LC/MS/MS at Quintara Discovery (Hayward, Calif., USA). In brief, brain samples were first homogenized in 2 volumes of ice-cold water, then further 2 fold diluted in blank plasma. An aliquot of 20 μL of each plasma sample or plasma diluted tissue homogenate was treated with 100 μL of acetonitrile containing internal standard (Terfenadine). The mixture was vortexed on a shaker for 15 minutes and subsequently centrifuged at 4000 rpm for 15 minutes. An aliquot of 70 μL of the extract was transferred to an injection plate and reconstituted in 70 μL of water for LC/MS/MS injection. Calibration standards and quality control samples were prepared by spiking the testing compound into blank plasma followed by processing with the samples.

With `COc1ccc2cc(OCC3(C(=O)O)CN(C(=O)c4ccc(F)cc4)C3)ccc2c1` [PF-04418948] the “brain level (whole brain lysates)” value was “not detected”.
